Reference: patent publication EP2802310B1, “NEW USE OF ZERUMBONE AND COMPOSITIONS COMPRISING ZERUMBONE” (Sederma, priority 2012, dated 2013)

Key:
Mature human adipocytes [1] = assay: Lipolytic effect, daily titration of released glycerol over 3 days; assay type: cell-based; details: Caffeine 300ppm; for activation at 300 ppm: Homo sapiens, Adipocyte, read-out: released glycerol, versus negative control
Procedure: (§1) Mature human adipocytes were treated with zerumbone to evaluate daily for 3 days. A daily titration of the released glycerol, reflecting lipolysis, was measured in the medium, before the media were changed in order to monitor the long-term effect.
In a second test, mature human adipocytes were treated with the product to evaluate daily for 3 days. A daily titration of the released glycerol was performed in the media, just before changing of the media in order to monitor the long term effect. Table 19: Comparison of the lipolytic effect of caffeine, zerumbone and of a mixture of caffeine and zerumbone on hypertrophied adipocytes in monolayer (n=4) at short and long term.

Mature human adipocytes [2] = assay: Lipolytic effect, released glycerol after 3 hours; assay type: cell-based; details: Adipocyte, Caffeine 300ppm, contact time 3h, read-out: released glycerol, versus negative control
Procedure: In a first test, mature human adipocytes were treated with the product to evaluate for 3 hours, then titration of the released glycerol, reflecting lipolysis, was measured in the medium.

mature adipocytes = assay: Intracellular triglyceride quantity in mature adipocytes; assay type: cell-based, human; details: Caffeine 300ppm
Procedure: as §1
Table 5: comparison of the intracellula triglyceride quantity found in mature adipocytes
Table 20: Comparison of the intracellular triglyceride content found in the mature adipocytes; compared effect of zerumbone, caffeine and of a mixture of zerumbone and caffeine.

Sirtuin-1 = Sirtuin-1 level in keratinocytes, ELISA; assay type: cell-based; details: Homo sapiens, Keratinocyte, 144 h, positive control at 500µm, read-out: Sirtuin-1 % Variation
Procedure: Human keratinocytes were cultured in the presence or absence of the Globularia cordifolia extract for 6 days and were then grinded and the intracellular levels of sirtuin-1 were measured using an ELISA method. Results were standardized by parallel measurement of total protein (BCA).

BSA = assay: Anti-glycation activity, BSA and fructose, fluorescence; assay type: biochemical; details: positive control at 0.03%
Description: The anti-glycation effect of the extract of Globularia cordifolia was studied using a protein model, the BSA, and a natural reducing sugar, fructose which glycates, i.e. binds, to the protein in a non-enzymatic manner. The product of this binding is fluorescent and is monitored with a fluorimeter.

With `Cn1c(=O)c2c(ncn2C)n(C)c1=O` [Caffeine, caffeine] the “released glycerol, versus negative control” value (Mature human adipocytes [1]; contact time 1 day) was “+200%”, the activation at 300 ppm (Mature human adipocytes [1]; 24 h, contact time 1 day) was 200% and the activation at 300 ppm (Mature human adipocytes [1]; 48 h, contact time 2 days) was 34%. The activation at 300 ppm (Mature human adipocytes [1]; 72 h, contact time 3 days) was 18%, the activation at 300 ppm (Mature human adipocytes [2]) was 171% and the Triglycerides (mature adipocytes) was 7120 ± 542 µM/10^6 cell. It also gave an inhibition at 300 ppm (mature adipocytes; Homo sapiens, Adipocyte, 72 h, dns, read-out: Triglycerides Variation (%)) of 9%.

For `Cc1c(C)c2c(c(C)c1O)CCC(C)(C(=O)O)O2` (stereo not drawn) [Trolox], the activation at 500 µM (Sirtuin-1) was 27%.

With `N=C(N)NN` [aminoguanidine] the “Glycation % Variation” value (BSA) was -85%.
